Earlier results in patent publication US10610500B2, “Chemosensory receptor ligand-based therapies” (Anji Pharma (US) LLC, priority 2011, dated 2020).

Molecular target: T1, sweet receptor (Homo sapiens, UniProt Q7RTX0+Q8TE23)
T1 sequence (Q8TE23 20-839): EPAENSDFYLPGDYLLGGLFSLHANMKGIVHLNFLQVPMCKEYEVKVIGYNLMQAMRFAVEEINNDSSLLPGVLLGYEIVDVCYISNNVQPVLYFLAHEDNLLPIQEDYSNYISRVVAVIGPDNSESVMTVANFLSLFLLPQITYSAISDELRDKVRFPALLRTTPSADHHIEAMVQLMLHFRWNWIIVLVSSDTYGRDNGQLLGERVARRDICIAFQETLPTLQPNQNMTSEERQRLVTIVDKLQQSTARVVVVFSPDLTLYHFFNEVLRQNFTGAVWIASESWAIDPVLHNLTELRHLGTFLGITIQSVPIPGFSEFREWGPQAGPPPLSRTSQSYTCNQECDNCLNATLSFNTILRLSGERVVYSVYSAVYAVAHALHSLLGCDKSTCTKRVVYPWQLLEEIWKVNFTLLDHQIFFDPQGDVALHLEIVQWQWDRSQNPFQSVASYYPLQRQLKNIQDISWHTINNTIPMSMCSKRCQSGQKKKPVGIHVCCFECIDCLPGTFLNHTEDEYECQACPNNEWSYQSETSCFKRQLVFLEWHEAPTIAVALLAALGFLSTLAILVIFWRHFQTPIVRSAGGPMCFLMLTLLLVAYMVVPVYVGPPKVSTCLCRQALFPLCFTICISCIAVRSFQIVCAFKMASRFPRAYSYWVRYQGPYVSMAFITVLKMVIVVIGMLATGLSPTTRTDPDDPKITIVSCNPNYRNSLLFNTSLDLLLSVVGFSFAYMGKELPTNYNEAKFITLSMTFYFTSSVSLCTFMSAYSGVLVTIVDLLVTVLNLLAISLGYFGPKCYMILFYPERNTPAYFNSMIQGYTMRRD
T1 sequence (Q7RTX0 21-852): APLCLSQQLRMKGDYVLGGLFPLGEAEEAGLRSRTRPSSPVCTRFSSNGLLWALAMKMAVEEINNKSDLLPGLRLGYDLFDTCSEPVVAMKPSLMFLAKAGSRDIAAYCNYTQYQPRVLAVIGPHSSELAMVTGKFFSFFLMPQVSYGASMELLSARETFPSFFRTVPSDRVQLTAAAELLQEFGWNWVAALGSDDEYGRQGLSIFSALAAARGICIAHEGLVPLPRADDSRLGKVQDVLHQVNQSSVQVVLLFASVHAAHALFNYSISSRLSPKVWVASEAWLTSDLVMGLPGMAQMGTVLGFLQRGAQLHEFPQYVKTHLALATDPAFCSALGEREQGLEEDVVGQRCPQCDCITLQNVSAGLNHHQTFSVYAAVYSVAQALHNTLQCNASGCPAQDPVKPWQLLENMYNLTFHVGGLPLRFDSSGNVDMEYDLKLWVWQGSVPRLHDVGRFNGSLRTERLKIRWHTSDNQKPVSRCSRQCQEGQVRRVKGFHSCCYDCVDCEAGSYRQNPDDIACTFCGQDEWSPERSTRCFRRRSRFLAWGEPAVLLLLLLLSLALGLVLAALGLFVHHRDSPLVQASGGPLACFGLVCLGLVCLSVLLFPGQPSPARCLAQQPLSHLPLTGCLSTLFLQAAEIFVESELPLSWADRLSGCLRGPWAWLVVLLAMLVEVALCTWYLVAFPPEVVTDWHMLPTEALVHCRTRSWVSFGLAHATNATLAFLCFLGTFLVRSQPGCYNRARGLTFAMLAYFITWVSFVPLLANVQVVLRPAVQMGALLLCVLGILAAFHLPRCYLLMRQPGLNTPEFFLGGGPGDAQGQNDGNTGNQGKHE
Details: relative sweetness on a weight comparison basis to sucrose (=1.0); ranges: relative sweetness varied with the concentration of sucrose

Compound	Sweetness/potency
C=C1C[C@@]23CC[C@H]4[C@@](C)(CCC[C@@]4(C)C(=O)O)[C@@H]2CC[C@]1(O[C@@H]1O[C@H](CO)[C@@H](O)[C@H](O)[C@H]1O[C@@H]1O[C@H](CO)[C@@H](O)[C@H](O)[C@H]1O)C3 [Steviolbioside]	90
Pentadin	500
CC1=CC[C@@H]([C@@H](C)[C@H]2CC[C@@]3(C)[C@@H]4CC[C@H]5[C@](C)(C(=O)O)[C@@H](O[C@@H]6O[C@H](CO)[C@@H](O)[C@H](O)[C@H]6O)CC[C@@]56C[C@@]46CC[C@]23C)OC1=O [Abrusoside A]	30
Oc1cc2c(cc1O)[C@@H]1c3ccc(O)c(O)c3OC[C@]1(O)C2 [Hematoxylin]	120
C/C(=C\CO)CCC1=C(C=O)CC(OC2OCC(O)C(O)C2O)C2C(C)(CO)CCCC12C (centres unmarked) [Gaudichaudioside A]	55
COc1c(O)cc2c(c1O)C(=O)[C@H](O)[C@@H](c1ccc(O)c(O)c1)O2 [(2R,3R)-2,3-Dihydro-5,7,3',4'-tetrahydroxy-6-methoxyflavonol]	15
COc1c(O)cc2c(c1O)C(=O)[C@H](OC(C)=O)[C@@H](c1ccc(O)cc1)O2 [(2R,3R)-2,3-Dihydro-5,7,4'-trihydroxy-6-methoxy-3-O-acetylflavonol]	20
C/C(=C\CC[C@@H](C)[C@H]1CC[C@@]2(C)[C@@H]3CC=C4[C@@H](CC[C@H](O[C@@H]5O[C@H](CO)[C@@H](O)[C@H](O)[C@H]5O)C4(C)C)[C@]3(C)[C@H](O)C[C@]12C)CO[C@@H]1O[C@H](CO[C@@H]2O[C@H](CO)[C@@H](O)[C@H](O)[C@H]2O)[C@@H](O)[C@H](O)[C@H]1O [Carnosifloside VI]	77
Thaumatin	1,600
CC1(C)C[C@H]2C3=CC[C@@H]4[C@@]5(C)CC[C@H](O[C@@H]6O[C@H](CO[C@@H]7OC[C@H](O)[C@H](O)[C@H]7O[C@@H]7OC[C@@H](O)[C@H](O)[C@H]7O)[C@@H](O)[C@H](O)[C@H]6O)C(C)(C)[C@@H]5CC[C@@]4(C)[C@]3(C)C[C@@H](O)[C@@]23C[C@@H]1OC3=O [Albiziasaponin A]	5
CC1=CC[C@@H]([C@@H](C)[C@H]2CC[C@@]3(C)[C@@H]4CC[C@H]5[C@](C)(C(=O)O)[C@@H](O[C@@H]6O[C@H](CO)[C@@H](O)[C@H](O)[C@H]6O[C@@H]6O[C@H](C(=O)O)[C@@H](O)[C@H](O)[C@H]6O)CC[C@@]56C[C@@]46CC[C@]23C)OC1=O [Abrusoside D]	75
CC(=O)O[C@H]1C(=O)c2c(O)cc(O)cc2O[C@@H]1c1ccc(O)c(O)c1 [(2R,3R)-Dihydroquercetin 3-O-acetate]	80
Albiziasaponin B	600
C=C(C)[C@@H]1CC=C(/C=N/O)CC1 [Perillartine]	370
CC[C@@H](C)C(=O)O[C@@H](C)[C@]1(O)CC[C@]2(O)[C@@H]3CC[C@H]4C[C@@H](O[C@@H]5C[C@H](O)[C@H](O[C@H]6C[C@H](OC)[C@H](O[C@H]7C[C@@H](OC)[C@H](O[C@H]8C[C@@H](OC)[C@H](O[C@@H]9O[C@H](C)[C@@H](O[C@@H]%10O[C@H](CO)[C@@H](O)[C@H](O)[C@H]%10O)[C@H](OC)[C@H]9O)[C@@H](C)O8)[C@@H](C)O7)[C@@H](C)O6)[C@@H](C)O5)CC[C@]4(C)[C@H]3C[C@@H](OC(C)=O)[C@]12C [Telosmoside A15]	1000
Brazzein: sweet protein of Pentadiplandra brazzeana Baillon (QDKCKKVYENYPVSKCQLANQCNYDCKLDKHARSGECFYDEKRNLQCICDYCEY; UniProt P56552 1-54, looked up)	2,000

Other lines, results leading:

Sweetness/potency	Compound
13	C/C=C/c1ccc(OC)cc1 [trans-Anethole]
ca. 1	C/C(=C\CC/C(C)=C/CO[C@@H]1O[C@H](CO)[C@@H](O)[C@H](O[C@@H]2O[C@@H](C)[C@H](O)[C@@H](O)[C@H]2O)[C@H]1O[C@@H]1O[C@@H](C)[C@H](O)[C@@H](O)[C@H]1O)CC/C=C(\C)CO[C@@H]1O[C@H](CO)[C@@H](O)[C@H](O[C@@H]2O[C@@H](C)[C@H](O)[C@@H](O)[C@H]2O)[C@H]1O[C@@H]1O[C@@H](C)[C@H](O)[C@@H](O)[C@H]1O [Mukurozioside IIb]
35	Oc1ccc([C@H]2Oc3c(c(O)cc4c3[C@H]3c5c(O)cc(O)cc5O[C@@](c5ccc(O)cc5)(O4)[C@@H]3O)[C@H](c3c(O)cc(O)c4c3O[C@H](c3ccc(O)cc3)[C@@H](O)C4)[C@H]2O)cc1 [Selligueain A]
85	Periandrin IV
1,500	CC(C)=CCC[C@](C)(O)[C@@H]1CCC(C)=CC1=O [(+)-Hernandulcin]
30	Rebaudioside C
300	C[C@@H]1O[C@@H](O[C@H]2[C@H](Oc3cc(O)c(C(=O)CCc4ccc(O)cc4)c(O)c3)O[C@H](CO)[C@@H](O)[C@@H]2O)[C@H](O)[C@H](O)[C@H]1O [Naringin dihydrochalcone]
550	Curculin
1,000	COc1ccc(CCC(=O)c2c(O)cc(O[C@@H]3O[C@H](CO)[C@@H](O)[C@H](O)[C@H]3O[C@@H]3O[C@@H](C)[C@H](O)[C@@H](O)[C@H]3O)cc2O)cc1O [Neohesperidin dihydrochalcone]
51	Carnosifloside V
500	C[C@@H]1O[C@@H](O[C@H]2O[C@@H]([C@@H](C)C3CC[C@@H]4[C@H]5CC(=O)[C@@H]6C[C@H](O[C@@H]7O[C@H](CO)[C@@H](O)[C@H](O)[C@H]7O[C@@H]7O[C@@H](C)[C@H](O)[C@@H](O)[C@H]7O)CC[C@]6(C)[C@@H]5CC[C@]34C)CC[C@@H]2C)[C@H](O)[C@H](O)[C@H]1O (some centres unmarked) [Osladin]
25	COc1c(O)cc2c(c1O)C(=O)[C@H](OC(C)=O)[C@@H](c1ccc(O)c(O)c1)O2 [(2R,3R)-2,3-Dihydro-5,7,3',4'-tetrahydroxy-6-methoxy-3-O-acetylflavonol]
50	CC1=CC[C@@H]([C@@H](C)[C@H]2CC[C@@]3(C)[C@@H]4CC[C@H]5[C@](C)(C(=O)O)[C@@H](O[C@@H]6O[C@H](CO)[C@@H](O)[C@H](O)[C@H]6O[C@@H]6O[C@H](CO)[C@@H](O)[C@H](O)[C@H]6O)CC[C@@]56C[C@@]46CC[C@]23C)OC1=O [Abrusoside C]
250	Cyclocaryoside I
90	CC1(C)[C@@H](O[C@@H]2O[C@H](C(=O)O)[C@@H](O)[C@H](O)[C@H]2O[C@@H]2O[C@H](C(=O)O)[C@@H](O)[C@H](O)[C@H]2O)CC[C@]2(C=O)[C@H]3CC[C@@H]4C5=C[C@@](C)(C(=O)O)CC[C@]5(C)CC[C@@]4(C)[C@]3(C)CC[C@@H]12 [Periandrin I]
100	C=C(C)C1CCC2(C)C(CC(OC3OCC(O)C(O)C3O)C3C(C(C)(O)C/C=C/C(C)(C)O)CCC32C)C1(C)CCC(=O)O (centres unmarked) [Pterocaryoside B]
3,000	Monellin
150	CC1(C)[C@@H](O[C@H]2O[C@H](C(=O)O)[C@@H](O)[C@H](O)[C@H]2O[C@@H]2OC[C@H](O)[C@H](O)[C@H]2O)CC[C@]2(C)[C@H]3C(=O)C=C4[C@@H]5C[C@@](C)(C(=O)O)CC[C@]5(C)CC[C@@]4(C)[C@]3(C)CC[C@@H]12 [Araboglycyrrhizin]
92	CC1(C(=O)O)C=C2C3CCC4C5(CO)CCC(OC6OC(C(=O)O)C(O)C(O)C6OC6OC(C(=O)O)C(O)C(O)C6O)C(C)(C)C5CCC4(C)C3(C)CCC2(C)CC1 (centres unmarked) [Periandrin III]
